Tests used:
mice = assay: Antagonism of oxotremorine induced salivation; format: in vivo; conditions: doses up to 300 mg/kg, p.o.
Method: Eszopiclone was evaluated for antimuscarinic activity in vivo.

[1] = tested on: subjects with insomnia related to rheumatoid arthritis; assay: Subject Pain Severity Assessment (0 to 10 scale), clinical study of eszopiclone 3 mg vs placebo; format: in vivo, human
Method: (§1) The study was aimed at observing the effect of eszopiclone 3 mg compared to placebo on daytime function in subjects with insomnia related to rheumatoid arthritis. The study was a multicenter, randomized, double-blind, placebo controlled, parallel group study.
A total of 153 subjects were randomized. Among them, 77 received 3 mg of eszopiclone (ESZ) nightly (at bedtime) for four weeks and 76 received matching placebo (PBO). The discontinuation rates were low, 5.2% in the ESZ group and 9.2% in the PBO group. The patient population was predominantly female (87%) and Caucasian (84%). Mean age was 52, with a range of 27-64. […] In addition, subjects had insomnia symptoms including wake time after sleep onset (WASO) of ≧45 minutes, and total sleep time ≦6.5 hours. Diagnosis of rheumatoid arthritis predated the onset of insomnia symptoms.
(§2) During the double blind treatment, subjects were dosed with 3 mg eszopiclone (ESZ) or matching placebo (PBO) nightly (at bedtime) for four weeks. Data was analyzed with one-sided significance tests.

[2] = tested on: subjects with insomnia related to rheumatoid arthritis; assay: Arthritis Self-Efficacy Scale, clinical study of eszopiclone 3 mg vs placebo; format: in vivo, human
Method: as §1
A total of 153 subjects were randomized. Among them, 77 received 3 mg of eszopiclone (ESZ) nightly (at bedtime) for four weeks and 76 received matching placebo (PBO). […] In addition, subjects had insomnia symptoms including wake time after sleep onset (WASO) of ≧45 minutes, and total sleep time ≦6.5 hours. Diagnosis of rheumatoid arthritis predated the onset of insomnia symptoms.
as §2

[3] = 3 mg nightly, visit 5 (Week 4), ITT, scale 0 to 10
[4] = 3 mg nightly, visit 5 (Week 4), ITT

With `CN1CCN(C(=O)O[C@H]2c3nccnc3C(=O)N2c2ccc(Cl)cn2)CC1` [Eszopiclone, (+) 6-(5-chloropyrid-2-yl)-5-(4-methylpiperazin-1-yl)carbonyloxy-7-oxo-6,7-dihydro-5H-pyrrolo[3-4-b]pyrazine] as the compound, how does the “antagonism of oxotremorine induced salivation” value (mice) read?
Its value is “neither (R)-, (S)-, nor racemic zopiclone significantly antagonized”.

What about the “effect on change from baseline to the end of study in the Subject Pain Severity Assessment” value ([1]; 3 mg nightly vs placebo) of the same compound?
Its value is “significant effect”.

What about the “Subject Pain Severity Assessment, Change from Baseline, Least Squares Means (SE) [2]” value ([1]; 3 mg nightly, visit 5 (Week 4), ITT, ANCOVA) of the same compound?
Its value is −0.5 (0.2).

And the “Subject Pain Severity Assessment, Change from Baseline, 25th Percentile” value [1, 3]?
The value was −2.0.

And the “Subject Pain Severity Assessment, Change from Baseline, 75th Percentile” value [1, 3]?
The value was 0.5.

What about the “Subject Pain Severity Assessment, Change from Baseline, Maximum” value [1, 3] of the same compound?
Its value is 7.0.

What about the “Subject Pain Severity Assessment, Change from Baseline, Mean (SD)” value [1, 3] of the same compound?
Its value is −0.5 (2.6).

And the “Subject Pain Severity Assessment, Change from Baseline, Median” value [1, 3]?
Its value is −1.0.

And the “Subject Pain Severity Assessment, Change from Baseline, Minimum” value [1, 3]?
The value was −7.0.

And the “Subject Pain Severity Assessment, Observed Value, 25th Percentile” value [1, 3]?
Its value is 2.5.

What about the “Subject Pain Severity Assessment, Observed Value, 75th Percentile” value [1, 3] of the same compound?
The value was 7.0.

What about the “Subject Pain Severity Assessment, Observed Value, Maximum” value [1, 3] of the same compound?
Its value is 10.0.

What about the “Subject Pain Severity Assessment, Observed Value, Mean (SD)” value [1, 3] of the same compound?
The value was 4.6 (2.7).

And the “Subject Pain Severity Assessment, Observed Value, Median” value [1, 3]?
Its value is 5.0.

What about the “Subject Pain Severity Assessment, Observed Value, Minimum” value [1, 3] of the same compound?
The value was 0.0.

What about the “Arthritis Self-Efficacy Scale Pain subscale analyzed alone, difference” value ([2]; 3 mg nightly vs placebo) of the same compound?
Its value is “statistically significant difference”.

And the “Arthritis Self-Efficacy Scale Pain subscale in combination with Other Symptoms, difference” value ([2]; 3 mg nightly vs placebo)?
Its value is “statistically significant difference”.

And the “effect on change from baseline to end of study (Week 4) in the Overall score for the Arthritis Self-Efficacy Scale” value ([2]; 3 mg nightly vs placebo)?
The value was “significant effect”.

What about the “Arthritis Self-Efficacy Scale Function, Change from Baseline, 25th Percentile” value [2, 4] of the same compound?
The value was −1.0.

And the “Arthritis Self-Efficacy Scale Function, Change from Baseline, 75th Percentile” value [2, 4]?
The value was 13.5.

And the “Arthritis Self-Efficacy Scale Function, Change from Baseline, Maximum” value [2, 4]?
The value was 74.0.

What about the “Arthritis Self-Efficacy Scale Function, Change from Baseline, Mean (SD)” value [2, 4] of the same compound?
The value was 4.8 (15.7).

And the “Arthritis Self-Efficacy Scale Function, Change from Baseline, Median” value [2, 4]?
The value was 4.0.

And the “Arthritis Self-Efficacy Scale Function, Change from Baseline, Minimum” value [2, 4]?
The value was −34.0.

And the “Arthritis Self-Efficacy Scale Function, Observed Value, 25th Percentile” value [2, 4]?
Its value is 45.5.

And the “Arthritis Self-Efficacy Scale Function, Observed Value, 75th Percentile” value [2, 4]?
The value was 83.5.

What about the “Arthritis Self-Efficacy Scale Function, Observed Value, Maximum” value [2, 4] of the same compound?
The value was 90.0.

And the “Arthritis Self-Efficacy Scale Function, Observed Value, Mean (SD)” value [2, 4]?
The value was 62.0 (22.1).

What about the “Arthritis Self-Efficacy Scale Function, Observed Value, Median” value [2, 4] of the same compound?
The value was 61.0.

And the “Arthritis Self-Efficacy Scale Function, Observed Value, Minimum” value [2, 4]?
The value was 13.0.

And the “Arthritis Self-Efficacy Scale Other Symptoms, Change from Baseline, 25th Percentile” value [2, 4]?
Its value is −2.0.

What about the “Arthritis Self-Efficacy Scale Other Symptoms, Change from Baseline, 75th Percentile” value [2, 4] of the same compound?
The value was 10.0.

And the “Arthritis Self-Efficacy Scale Other Symptoms, Change from Baseline, Maximum” value [2, 4]?
Its value is 41.0.

What about the “Arthritis Self-Efficacy Scale Other Symptoms, Change from Baseline, Mean (SD)” value [2, 4] of the same compound?
The value was 3.5 (10.5).

And the “Arthritis Self-Efficacy Scale Other Symptoms, Change from Baseline, Median” value [2, 4]?
Its value is 3.0.

And the “Arthritis Self-Efficacy Scale Other Symptoms, Change from Baseline, Minimum” value [2, 4]?
The value was −26.0.

What about the “Arthritis Self-Efficacy Scale Other Symptoms, Observed Value, 25th Percentile” value [2, 4] of the same compound?
The value was 31.5.

What about the “Arthritis Self-Efficacy Scale Other Symptoms, Observed Value, 75th Percentile” value [2, 4] of the same compound?
The value was 50.0.

What about the “Arthritis Self-Efficacy Scale Other Symptoms, Observed Value, Maximum” value [2, 4] of the same compound?
The value was 59.0.

What about the “Arthritis Self-Efficacy Scale Other Symptoms, Observed Value, Mean (SD)” value [2, 4] of the same compound?
Its value is 39.3 (12.7).

What about the “Arthritis Self-Efficacy Scale Other Symptoms, Observed Value, Median” value [2, 4] of the same compound?
Its value is 40.0.

And the “Arthritis Self-Efficacy Scale Other Symptoms, Observed Value, Minimum” value [2, 4]?
Its value is 6.0.

What about the “Arthritis Self-Efficacy Scale Overall, Change from Baseline, 25th Percentile” value [2, 4] of the same compound?
Its value is −1.6.

What about the “Arthritis Self-Efficacy Scale Overall, Change from Baseline, 75th Percentile” value [2, 4] of the same compound?
Its value is 26.0.

And the “Arthritis Self-Efficacy Scale Overall, Change from Baseline, Maximum” value [2, 4]?
Its value is 124.0.

What about the “Arthritis Self-Efficacy Scale Overall, Change from Baseline, Mean (SD)” value [2, 4] of the same compound?
The value was 11.5 (29.3).

And the “Arthritis Self-Efficacy Scale Overall, Change from Baseline, Median” value [2, 4]?
The value was 12.0.

What about the “Arthritis Self-Efficacy Scale Overall, Change from Baseline, Minimum” value [2, 4] of the same compound?
Its value is −74.0.

And the “Arthritis Self-Efficacy Scale Overall, Observed Value, 25th Percentile” value [2, 4]?
Its value is 103.0.

And the “Arthritis Self-Efficacy Scale Overall, Observed Value, 75th Percentile” value [2, 4]?
The value was 162.5.

And the “Arthritis Self-Efficacy Scale Overall, Observed Value, Maximum” value [2, 4]?
The value was 189.0.

And the “Arthritis Self-Efficacy Scale Overall, Observed Value, Mean (SD)” value [2, 4]?
Its value is 130.9 (38.2).

And the “Arthritis Self-Efficacy Scale Overall, Observed Value, Median” value [2, 4]?
The value was 132.6.

What about the “Arthritis Self-Efficacy Scale Overall, Observed Value, Minimum” value [2, 4] of the same compound?
The value was 27.0.

What about the “Arthritis Self-Efficacy Scale Pain and Other Symptoms, Change from Baseline, 25th Percentile” value [2, 4] of the same compound?
The value was 1.0.

And the “Arthritis Self-Efficacy Scale Pain and Other Symptoms, Change from Baseline, 75th Percentile” value [2, 4]?
The value was 13.0.

What about the “Arthritis Self-Efficacy Scale Pain and Other Symptoms, Change from Baseline, Maximum” value [2, 4] of the same compound?
Its value is 50.0.

And the “Arthritis Self-Efficacy Scale Pain and Other Symptoms, Change from Baseline, Mean (SD)” value [2, 4]?
The value was 6.9 (16.4).

And the “Arthritis Self-Efficacy Scale Pain and Other Symptoms, Change from Baseline, Median” value [2, 4]?
Its value is 6.0.

What about the “Arthritis Self-Efficacy Scale Pain and Other Symptoms, Change from Baseline, Minimum” value [2, 4] of the same compound?
The value was −46.0.

And the “Arthritis Self-Efficacy Scale Pain and Other Symptoms, Observed Value, 25th Percentile” value [2, 4]?
The value was 53.5.

What about the “Arthritis Self-Efficacy Scale Pain and Other Symptoms, Observed Value, 75th Percentile” value [2, 4] of the same compound?
Its value is 86.0.

And the “Arthritis Self-Efficacy Scale Pain and Other Symptoms, Observed Value, Maximum” value [2, 4]?
The value was 101.0.

What about the “Arthritis Self-Efficacy Scale Pain and Other Symptoms, Observed Value, Mean (SD)” value [2, 4] of the same compound?
The value was 68.5 (21.1).

And the “Arthritis Self-Efficacy Scale Pain and Other Symptoms, Observed Value, Median” value [2, 4]?
Its value is 69.7.

And the “Arthritis Self-Efficacy Scale Pain and Other Symptoms, Observed Value, Minimum” value [2, 4]?
The value was 14.0.

What about the “Arthritis Self-Efficacy Scale Pain, Change from Baseline, 25th Percentile” value [2, 4] of the same compound?
Its value is −1.0.

What about the “Arthritis Self-Efficacy Scale Pain, Change from Baseline, 75th Percentile” value [2, 4] of the same compound?
The value was 10.5.

And the “Arthritis Self-Efficacy Scale Pain, Change from Baseline, Maximum” value [2, 4]?
Its value is 30.0.

What about the “Arthritis Self-Efficacy Scale Pain, Change from Baseline, Mean (SD)” value [2, 4] of the same compound?
The value was 3.3 (10.5).

And the “Arthritis Self-Efficacy Scale Pain, Change from Baseline, Median” value [2, 4]?
Its value is 3.0.

What about the “Arthritis Self-Efficacy Scale Pain, Change from Baseline, Minimum” value [2, 4] of the same compound?
The value was −37.0.

And the “Arthritis Self-Efficacy Scale Pain, Observed Value, 25th Percentile” value [2, 4]?
The value was 22.0.

And the “Arthritis Self-Efficacy Scale Pain, Observed Value, 75th Percentile” value [2, 4]?
Its value is 38.0.

And the “Arthritis Self-Efficacy Scale Pain, Observed Value, Maximum” value [2, 4]?
Its value is 50.0.

— patent US7776858B2, “Methods of treatment of chronic pain using eszopiclone” (Sepracor Inc., priority 2004, dated 2010)
